Experimental data reported in article PMC11440839, “DOTA Conjugate of Bisphosphonate and PSMA-Inhibitor: A Promising Combination for Therapy of Prostate Cancer Related Bone Metastases” (Frontiers in Nuclear Medicine, 2022).

Target: T1, PSMA (prostate-specific membrane antigen); glutamate carboxypeptidase II (GCPII) (Homo sapiens, UniProt Q04609)
T1 construct: gene FOLH1; native full-length type II transmembrane protein on intact LNCaP cells; 750 amino acids
Experiment: competitive radioligand assay on LNCaP cells
Assay type: cell-based
Conditions: competition with 0.75 nM [68Ga]Ga-PSMA-10, 45 min
Excerpt: competitive radioligand assay on LNCaP cells on PSMA (prostate-specific membrane antigen); glutamate carboxypeptidase II (GCPII)

T1 sequence (Q04609 whole entry): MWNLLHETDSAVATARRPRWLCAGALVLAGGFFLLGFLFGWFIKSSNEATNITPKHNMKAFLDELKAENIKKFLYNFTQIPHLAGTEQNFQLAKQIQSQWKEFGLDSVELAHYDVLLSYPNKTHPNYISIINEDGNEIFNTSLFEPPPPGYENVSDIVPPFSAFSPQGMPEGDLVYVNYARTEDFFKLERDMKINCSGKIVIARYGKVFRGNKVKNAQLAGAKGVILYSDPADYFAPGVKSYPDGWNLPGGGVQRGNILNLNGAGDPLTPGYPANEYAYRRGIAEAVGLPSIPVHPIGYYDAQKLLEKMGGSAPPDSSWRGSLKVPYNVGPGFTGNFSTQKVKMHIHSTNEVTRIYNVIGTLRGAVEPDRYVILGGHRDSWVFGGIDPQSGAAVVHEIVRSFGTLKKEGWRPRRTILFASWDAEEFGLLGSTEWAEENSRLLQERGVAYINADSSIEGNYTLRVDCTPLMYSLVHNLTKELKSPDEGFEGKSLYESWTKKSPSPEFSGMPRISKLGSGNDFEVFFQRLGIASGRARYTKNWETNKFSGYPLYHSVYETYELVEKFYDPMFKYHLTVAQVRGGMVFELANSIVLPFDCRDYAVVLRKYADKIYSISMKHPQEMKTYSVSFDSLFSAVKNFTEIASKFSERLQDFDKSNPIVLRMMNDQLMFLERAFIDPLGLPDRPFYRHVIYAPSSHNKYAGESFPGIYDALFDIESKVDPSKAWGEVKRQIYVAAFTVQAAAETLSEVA

Structure (SMILES)	Ki (metal-free ligand) [nM]	Ki (reference compound, footnote: IC50 values can be found in the earlier paper of the same first author (ref 48), cited from earlier work) [nM]
NCCCC[C@H](NC(=O)CN1CCN(CC(=O)O)CCN(CC(=O)O)CCN(CC(=O)O)CC1)C(=O)NC[C@H]1CC[C@H](C(=O)N[C@@H](Cc2ccc3ccccc3c2)C(=O)NCCCC[C@H](NC(=O)N[C@@H](CCC(=O)O)C(=O)O)C(=O)O)CC1 [compound 12, DOTA-L-Lys-PSMA-617]	19.7 ± 3.3	
O=C(O)CC[C@H](NC(=O)N[C@@H](CCCCNC(=O)[C@H](Cc1ccc2ccccc2c1)NC(=O)[C@H]1CC[C@H](CNC(=O)[C@H](CCCCNc2c(NCCC(O)(P(=O)(O)O)P(=O)(O)O)c(=O)c2=O)NC(=O)CN2CCN(CC(=O)O)CCN(CC(=O)O)CCN(CC(=O)O)CC2)CC1)C(=O)O)C(=O)O [compound 13, DOTA-L-Lys(SA.Pam)-PSMA-617]	52.6 ± 3.5	
O=C(O)CC[C@H](NC(=O)N[C@@H](CCCCNC(=O)[C@H](Cc1ccc2ccccc2c1)NC(=O)[C@H]1CC[C@H](CNC(=O)CN2CCN(CC(=O)O)CCN(CC(=O)O)CCN(CC(=O)O)CC2)CC1)C(=O)O)C(=O)O [PSMA-617]		6.9 ± 1.3
